Measurements from article PMC8037406, “Symbiotic NCR Peptide Fragments Affect the Viability, Morphology and Biofilm Formation of Candida Species” (International Journal of Molecular Sciences, 2021).
Where a SMILES comes first, the peptide text is derived from it.

Experiments:
[1] = system: Candida auris 0381; assay: microbe, parasite or virus in culture; format: cell-based; conditions: micro-dilution, YNB medium, 4 × 10^4 cell/mL, 48 h, 30 °C, OD 620 nm; MIC = growth inhibition ≥90%; peptides 25 to 1.56 µM, fluconazole 200 to 0.78 µM; three biological repeats in triplicates; also: key: -: no growth inhibition was observed
Experimental: (§1) The antifungal activity of all the 14 peptides was tested against the following opportunistic human pathogen Candida species and strains: C. albicans strains ATCC 10231, SC 5314 and SZMC 1458, C. auris 0381, C. glabrata CBS 138, C. parapsilosis CBS 604 and C. tropicalis CBS 94.
(§2) All the Candida strains (Table 4) were grown overnight in YPD medium (1% pepton, 1% dextrose, 0.5% yeast extract) at 30 °C in water bath shaker prior to each experiments. The cells were harvested by centrifugation (5 min, 3000× g) washed twice with sterile distilled water and suspended in 5-fold diluted Difco Yeast Nitrogen Base w/o Amino Acids medium (Becton, Dickinson and Company, Sparks, MD, USA) supplemented with 1% dextrose, referred to as YNB medium in the text. Cells were counted in Bürker chamber and diluted to the proper concentration.
(§3) The growth inhibition of the peptides listed in Table 1 was tested in 96-well microtiter plates on Candida strains. The minimal inhibitory concentration (MIC) was determined with the micro-dilution method by adding 5 µL serially two-fold-diluted peptide solution to 95 µL of cell suspension (4 × 10^4 cell/mL) in YNB medium. After 48 h of incubation at 30 °C the optical density of the cultures was measured at 620 nm in SPECTROstar Nano plate reader (BMG LabTech, Offenburg, Germany). Minimal inhibitory concentration was defined as growth inhibition ≥90% compared to 100% growth of the untreated control. The experiments were carried out in three biological repeats always in triplicates.

[2] = system: Candida tropicalis CBS 94; assay: microbe, parasite or virus in culture; format: cell-based; conditions: micro-dilution, YNB medium, 4 × 10^4 cell/mL, 48 h, 30 °C, OD 620 nm; MIC = growth inhibition ≥90%; peptides 25 to 1.56 µM, fluconazole 200 to 0.78 µM; three biological repeats in triplicates; also: key: -: no growth inhibition was observed
Experimental: as §1, §2, §3

[3] = system: Candida cells; assay: Fungicide effect, spotting of treated cells on solid YPD medium; format: cell-based, Candida species; conditions: 1.56–25 µM, 24 h treatment, dilutions spotted on solid YPD medium, 48 h, 30 °C
Experimental: To determine whether the inhibitory effect of the peptides is generated by fungistatic or fungicide action, the Candida cells were treated with the peptides in the same concentration range (1.56–25 µM) as in the growth inhibition assay. After 24 h 5 µL sample from the untreated control cells and from the peptide treated cells was added to 95 µL water and diluted further 10- and 100-fold. From each dilution, 5 µL was placed on solid medium and the growth of the control and peptide treated cells was compared after 48 h incubation at 30 °C. This assay confirmed that all the effective peptides, NCR335N1–19, NCR335N7–21, NCR335C1–33, NCR335C13–33, NCR335C17–33, NCR169C17–38, NCR169C17–38ox, NCR169C17–38W10,20/A provoked growth inhibition through fungicidal actions (Figure A2). The fungicide concentrations, required for the complete elimination of the Candida cells, were either equal to or twice higher than the minimum inhibitory concentrations presented in Table 2.
The same initial experimental setting was used to determine the fungicide effect of the peptides. Five µL samples were taken from the cultures after 24 h and were added to 95 µL sterile distilled water, and diluted to 10- and 100-fold (indicated as 10^4, 10^3 and 10^2 based on the cell number of the control culture in Figure A2). Five µL from each dilution were placed on solid YPD medium and the growth of the strains was detected after 48 h incubation at 30 °C.

[4] = system: Candida parapsilosis CBS 604; assay: microbe, parasite or virus in culture; format: cell-based; conditions: micro-dilution, YNB medium, 4 × 10^4 cell/mL, 48 h, 30 °C, OD 620 nm; MIC = growth inhibition ≥90%; peptides 25 to 1.56 µM, fluconazole 200 to 0.78 µM; three biological repeats in triplicates; also: key: -: no growth inhibition was observed
Experimental: as §1, §2, §3

[5] = system: C. albicans ATCC 10231 biofilm; assay: Biofilm formation assay, XTT; format: cell-based, Candida albicans; conditions: 72 h, 37 °C, 5 % CO2, 1/8AIM medium, p ≤ 0.0001
[6] = system: C. albicans SC 5314 biofilm; assay: Biofilm formation assay, XTT; format: cell-based, Candida albicans; conditions: 72 h, 37 °C, 5 % CO2, 1/8AIM medium, p ≤ 0.0001
[7] = system: C. albicans SZMC 1458 biofilm; assay: Biofilm formation assay, XTT; format: cell-based, Candida albicans; conditions: 72 h, 37 °C, 5 % CO2, 1/8AIM medium, p ≤ 0.0001
[8] = system: C. tropicalis CBS 94 biofilm; assay: Biofilm formation assay, XTT; format: cell-based, Candida tropicalis; conditions: 72 h, 37 °C, 5 % CO2, 1/8AIM medium, p ≤ 0.0001

| Compound | Minimal inhibitory concentration, Cau 0381 [1] | Minimal inhibitory concentration, Ct CBS 94 [2] | growth inhibition by fungistatic or fungicide action [3] | Minimal inhibitory concentration, Cp CBS 604 [4] | concentration significantly inhibiting biofilm formation, relative to MIC [5] | concentration significantly inhibiting biofilm formation, relative to MIC [6] | concentration significantly inhibiting biofilm formation, relative to MIC [7] | concentration significantly inhibiting biofilm formation, relative to MIC [8] |
| --- | --- | --- | --- | --- | --- | --- | --- | --- |
| CC[C@H](C)[C@H](NC(=O)[C@@H]1CCCN1C(=O)[C@@H](NC(=O)[C@H](CS)NC(=O)[C@H](Cc1ccc(O)cc1)NC(=O)[C@H](CO)NC(=O)[C@H](CCCCN)NC(=O)[C@H](CCCNC(=N)N)NC(=O)[C@H](CS)NC(=O)[C@H](CCCNC(=N)N)NC(=O)[C@@H](NC(=O)[C@H](CC(N)=O)NC(=O)[C@H](C)NC(=O)[C@H](CCCNC(=N)N)NC(=O)[C@H](CCCNC(=N)N)NC(=O)[C@H](CC(C)C)NC(=O)[C@H](CCCCN)NC(=O)[C@@H]1CCCN1C(=O)[C@H](CS)NC(=O)[C@H](CC(=O)O)NC(=O)[C@H](CCCCN)NC(=O)[C@H](CC(N)=O)NC(=O)[C@@H](NC(=O)[C@H](CCCCN)NC(=O)[C@H](CS)NC(=O)[C@H](CC(=O)O)NC(=O)[C@H](CO)NC(=O)[C@H](CC(C)C)NC(=O)[C@@H](NC(=O)[C@H](CC(C)C)NC(=O)[C@H](CO)NC(=O)[C@H](Cc1ccccc1)NC(=O)[C@@H](N)Cc1c[nH]cn1)[C@@H](C)CC)[C@@H](C)O)C(C)C)C(C)C)C(N)=O [NCR335C1–33] (H-HFSLILSDCKTNKDCPKLRRANVRCRKSYCVPI-NH2; N-terminus assumed) | - | - | fungicidal |  |  |  |  |  |
| CC[C@H](C)[C@H](NC(=O)[C@H](CCCCN)NC(=O)[C@H](Cc1ccccc1)NC(=O)[C@H](CC(C)C)NC(=O)[C@@H]1CCCN1C(=O)[C@H](CCCCN)NC(=O)[C@H](CCCCN)NC(=O)[C@H](CO)NC(=O)[C@@H](N)CCCCN)C(=O)N[C@@H](C)C(=O)N[C@@H](CCCCN)C(=O)N[C@@H](CS)C(=O)N[C@H](C(=O)N[C@@H](CCC(=O)O)C(=O)N[C@@H](CC(N)=O)C(=O)N[C@H](C(=O)N[C@@H](CS)C(=O)N[C@H](C(=O)N[C@@H](CC(C)C)C(=O)N[C@@H](C)C(=O)N[C@@H](Cc1ccc(O)cc1)C(=O)N[C@@H](CCCCN)C(N)=O)C(C)C)C(C)C)C(C)C [NCR169C17–38W10,20/A] (H-KSKKPLFKIAKCVENVCVLAYK-NH2; N-terminus assumed) | - |  | fungicidal | - | half MIC | half MIC | MIC | one-fourth of the MIC |
